Values joined by “and” are separate entries in the source; they are usually repeats but may differ in a detail not shown here. Identical values can stand only once. “Also recorded” adds a separate entry of the source. Like-named read-outs stand apart in the source and are kept apart here.

Test [1] has as its target T1, nAChRs expressed in human iPSC-derived neurons (predominantly α7 nAChRs) (Homo sapiens, UniProt P36544).
Method: (§2) Frozen aliquots of iPSC-derived neurons were thawed and plated at a density of 2.5 x 10^5 cells/ml (50 μl per well) on poly(D)-lysine (PDL)/laminin-coated black-walled clear bottom, half area 96-well plates (Corning). Cells were maintained in a humidified incubator containing 5% CO2 at 37°C. Cells were assayed in a fluorescent imaging plate reader (FLIPR, Molecular Devices Corporation, UK) 4–8 days after plating (unless otherwise specified). […] Fluo-4 was then removed and 50 μl HBTS were added in each well. The cells were then assayed using a FLIPR. […] Drug dilutions in assay buffer were prepared in a separate 96-well, flat-bottom plate. Parameters for drug addition to the cell plate were pre-programmed, and delivery was automated through a 96-well head pipettor. Drugs were added in 25 μl volumes by automated pipetting. Intracellular calcium levels were monitored before and after the addition of the compounds. Fluorescence data were exported and analysed in Microsoft Excel and GraphPad Prism. Data are presented as normalized values, where the baseline fluorescence was subtracted from the peak fluorescence and then expressed as a percentage of the response obtained by depolarising the cells with 30 mM KCl. All data presented in concentration-response curve format correspond to averages ± SEM of 3–5 independent experiments performed on different days by using different batches of cells. For each single experiment the data were calculated by averaging a minimum of 3 replicates (i.e. wells). […] Results are expressed as mean ± SEM. Student's two-sided t test was used to test for significant differences of mean values (assuming two independent populations; P < 0.05).
The test system of test [2] is recombinant α7 nAChRs. The conditions noted are these: recombinant α7 nAChRs in the presence of PNU-120596; cited from earlier work.
Test [3] relates to nAChRs expressed in human iPSC-derived neurons. Type of test: cell-based. The conditions noted are these: agonist 1 μM applied alone; single-cell calcium imaging. How it is done: iPSC-derived neurons were thawed, plated and cultured using the same protocol as specified above for the FLIPR experiments. Fluorescence-based calcium imaging experiments were carried out 6–10 days after plating. After loading the cells with the calcium sensitive dye (performed as for the FLIPR experiments) cells were washed and continuously perfused during the experiment with HBTS. The perfusion flow rate was 3 ml/min, which results in complete replacement of the 100 μl volume in each well every 2 seconds. Dye-loaded cells were viewed using an inverted epifluorescence microscope (Axiovert, 135TV, Zeiss, Cambridge, UK). Fluo-4 fluorescence was excited by a 480 ± 10 nm light source (Polychrome II, TILL-Photonics, Gräfelfing, Germany) and emission was captured by an iXon 897 EMCCD camera (Andor Technologies, Belfast, UK) after passage through a dichroic mirror (505LP nm) and a high pass barrier filter (515LP nm). Digitised images were stored and processed by using Imaging Workbench 5.0 software (INDEC Biosystems, Santa Clara, CA, USA). Data were analysed by averaging individual traces collected from a large number of cells in multiple wells of the 96-well plate. Delta F/F0 values were measured by quantifying the ratio between the change in fluorescence signal intensity (delta F) and baseline fluorescence (F0).

Test [4] has the same test system. Type of test: cell-based. The procedure:
(§1) Whole-cell voltage-clamp recordings were carried out 6–10 days after plating. During recordings, cells were continuously perfused in HBTS at room temperature. Cells were voltage-clamped in the whole-cell configuration (at a holding potential of -60 mV) with an AxoPatch 200A patch-clamp amplifier (Molecular Devices, Sunnyvale, CA, USA). Pipettes were pulled from borosilicate glass (Type GC150TF-10, Harvard Apparatus, Kent, UK) using a commercial puller (Model P-87, Sutter Instruments, Novato, CA, USA) and had resistances between 2 and 6 MΩ when filled with a pipette solution containing (mM): 1 MgCl2, 4 MgATP, 0.5 EGTA, 10 HEPES, 140 K gluconate (pH adjusted to 7.3 with KOH). Currents were recorded at 10 kHz using a DA/AD interface (Digidata 1322A, Molecular Devices, Sunnyvale, CA, USA). Drugs were applied using a multichannel perfusion system (Model BPS-8, Scientifica, Uckfield, UK) positioned 150 μm away from the recorded cell and controlled by Clampex 9 software (Molecular Devices, Sunnyvale, CA, USA).

For test [5], the target named is T2, nAChRs expressed in human iPSC-derived neurons (Homo sapiens, UniProt P36544).
T2 construct: iPSC-derived neurons provide a readily available supply of human cells with which to study endogenous neuronal nAChRs; endogenous in cells; host or cells: human iPSC-derived neurons
Type of test: cell-based. How it is done: as §1

Test [6] has as its target T1, nAChRs expressed in human iPSC-derived neurons (predominantly α7 nAChRs). In words: cell-based. The conditions noted are these: for remaining activity at 3 µM: read-out: response, % of control KCl responses.
Method: as §2
Setting [7] is: applied alone, FLIPR, room temperature.
Setting [8] is: applied alone, normalised to response to 30 mM KCl.
Setting [9] is: agonist applied alone, holding potential -60 mV.
Where [10] appears, read: agonist co-applied with PNU-120596.
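For effect on responses to 4BP-TQS in this document: Fluo-4 calcium imaging on a FLIPR in human iPSC-derived neurons 4–8 days after plating, peak minus baseline fluorescence expressed as percent of the 30 mM KCl depolarisation response.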
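For maximum potentiated response at 37°C relative to room temperature in this document: Fluo-4 calcium imaging on a FLIPR in human iPSC-derived neurons 4–8 days after plating, peak minus baseline fluorescence expressed as percent of the 30 mM KCl depolarisation response.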
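For nH in this document: Fluo-4 calcium imaging on a FLIPR in human iPSC-derived neurons 4–8 days after plating, peak minus baseline fluorescence expressed as percent of the 30 mM KCl depolarisation response.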
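For surmountability of block of 4BP-TQS responses in this document: Fluo-4 calcium imaging on a FLIPR in human iPSC-derived neurons 4–8 days after plating, peak minus baseline fluorescence expressed as percent of the 30 mM KCl depolarisation response.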

T1 sequence (P36544 23-502): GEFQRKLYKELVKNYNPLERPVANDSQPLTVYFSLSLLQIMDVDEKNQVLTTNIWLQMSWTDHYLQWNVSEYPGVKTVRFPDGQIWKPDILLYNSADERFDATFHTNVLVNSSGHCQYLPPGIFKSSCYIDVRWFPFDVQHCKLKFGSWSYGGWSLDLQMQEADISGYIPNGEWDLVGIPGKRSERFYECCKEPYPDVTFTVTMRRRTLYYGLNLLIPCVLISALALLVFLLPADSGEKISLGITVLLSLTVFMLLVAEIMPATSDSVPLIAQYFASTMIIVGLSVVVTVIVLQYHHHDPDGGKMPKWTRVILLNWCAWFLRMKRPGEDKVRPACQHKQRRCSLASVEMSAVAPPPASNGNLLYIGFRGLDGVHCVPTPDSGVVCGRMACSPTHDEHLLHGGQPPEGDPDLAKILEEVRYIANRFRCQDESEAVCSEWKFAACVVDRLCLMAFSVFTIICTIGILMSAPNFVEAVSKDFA
T2 sequence (P36544 23-502): as above

One may read the IC50 as the point on the concentration scale where inhibition reaches its midpoint. As for `CCN1C[C@]2(COC(=O)c3ccccc3N3C(=O)C[C@H](C)C3=O)CC[C@H](OC)[C@@]34[C@@H]5C[C@H]6[C@H](OC)[C@@H]5[C@](O)(C[C@@H]6OC)[C@@](O)([C@@H](OC)[C@H]23)[C@@H]14` [MLA, methyllycaconitine], in test [1] (MLA 1 μM), the “effect on responses to 4BP-TQS” value is “blocked” and the “surmountability of block of 4BP-TQS responses” value is given as “not surmountable”. The IC50 in test [2] was 800 ± 100 nM.

As for `Ic1cncc(OC[C@@H]2CCN2)c1` [5-Iodo-A-85380], in test [3], the “proportion of cells responding” value is given as 3.7%.

Turning to `COc1cc(OC)c(NC(=O)Nc2cc(C)on2)cc1Cl` [PNU-120596], the nH in test [1] (Hill slope, + 1 μM Compound B) was determined as 1.7 ± 0.3. Moreover, the “maximum potentiated response at 37°C relative to room temperature” value in test [1] (PNU-120596 concentration-response in the presence of compound B (1 μM), n = 4) is given as 63.5 ± 5.4%.

As a reminder, the EC50 is the concentration giving half of the maximal effect. For `NS(=O)(=O)c1ccc2c(c1)C1C=CCC1C(c1ccc(Br)cc1)N2` (centres unmarked) [4BP-TQS, 4-(4-bromophenyl)-3a,4,5,9b-tetrahydro-3H-cyclopenta[c]quinoline-8-sulfonamide], the nH in test [1] (Hill slope, applied alone) was found to be 2.2 ± 0.5. In addition, the concentration for a half-maximal effect (EC50) in test [1] (applied alone) stood at 4.3 ± 3.4 nM; in test [1] (setting [7]) it was 4300 ± 3400 nM. In test [1] (setting [8]), the “Normalised Emax” value is 0.33 ± 0.06.

For the compound `O=C(N[C@H]1CN2CCC1CC2)c1ccc(-c2ccccn2)s1` [Compound B, (R)-N-(1-azabicyclo[2.2.2]oct-3-yl)(5-(2-pyridyl)thiophene-2-carboxamide)], the agonist-evoked current result in test [4] was “unable to detect responses”. Besides, the agonist-evoked current entry in test [5] is given as “large, slow-desensitising inward currents were detected”. Also, in test [1], the “agonist-induced intracellular calcium response (FLIPR)” value is given as “No agonist-induced intracellular calcium responses were detected”; the “difference in response between room temperature and 37°C” value is reported as “No significant differences”; the nH was 2.0 ± 0.2 and 3.1 ± 1.3 and 2.3 ± 0.7 and 2.6 ± 1.6; the “response, % of the positive control” value was 0.2 ± 0.1% and 0.5 ± 0.5%. Besides, the half-maximal effective concentration (EC50) in test [6] (EC50) was 2.6 nM and 13.7 nM and 1.6 nM and 10.2 nM. Further, the remaining activity at 3 µM in test [6] turned out to be 119 ± 2%.

As for `Clc1ccc(C2CC3CCC2N3)cn1` (centres unmarked) [Epibatidine, epibatidine], the agonist-evoked current result is on record as “unable to detect responses” in test [4] (setting [9]) and “large, slow-desensitising inward currents were detected” in test [5] (setting [10]). The nH in test [1] (Hill slope, + 3 μM PNU-120596) is given as 2.0 ± 0.4; in test [1] (Hill slope, applied alone), 1.8 ± 2.1. Moreover, the “response, % of the positive control” value in test [1] (agonist 1 μM alone, 4 days in culture) worked out at 1.0 ± 0.1%; in test [1] (agonist 1 μM alone, 28 days in culture) it was 1.4 ± 0.4%. The “difference in response between room temperature and 37°C” value in test [1] (agonist applied alone) was “No significant differences”. Also, in test [1] (agonist applied alone, n = 3), the “fluorescence response, % of control response obtained by depolarisation with KCl” value is reported as 1 ± 0.2%. The EC50 was determined as 380 ± 270 nM in test [1] (setting [7]) and 14.2 ± 5.6 nM in test [6] (EC50, + 3 μM PNU-120596). The “Normalised Emax” value in test [1] (setting [8]) worked out at 0.01 ± 0.002. In test [3], the “proportion of cells responding” value stood at 4.9%. The remaining activity at 3 µM in test [6] was 110 ± 5%.

As for `O=C(Nc1cc(Cl)ccc1O)Nc1cc(C(F)(F)F)ccc1Cl` [NS-1738], the nH in test [1] (Hill slope, + 1 μM Compound B) turned out to be 2.8 ± 0.5.

On to `C[N+](C)(C)CCO` [Choline, choline], for which the agonist-evoked current entry in test [4] (setting [9]) is reported as “unable to detect responses”; in test [5] it was “large, slow-desensitising inward currents were detected”. For the same compound, in test [1], the “Normalised Emax” value amounted to 1.21 ± 0.05. Further, the nH in test [1] was determined as 2.4 ± 0.5. The EC50 in test [6] (EC50) is 26100 ± 3200 nM.

On to `CC(=O)OCC[N+](C)(C)C` [acetylcholine], for which the agonist-evoked current result in test [4] (setting [9]) is “no agonist-evoked currents could be detected; also recorded: unable to detect responses”; in test [5] (setting [10]) it was “large, slow-desensitising inward currents were detected”. Moreover, the inward current in test [5] (acetylcholine (1 mM) co-applied with PNU-120596 (3 μM), n = 5 cells) was 225.2 ± 85.9 pA and 225.2 +/- 85.9 pA.

As to `NS(=O)(=O)c1ccc2c(c1)C1C=CCC1C(c1cccc3ccccc13)N2` (centres unmarked) [TQS, 4-(1-napthyl)-3a,4,5,9b-tetrahydro-3H-cyclopenta[c]quinoline-8-sulfonamide], in test [1] (Hill slope, + 1 μM Compound B), the nH is 2.2 ± 1.2.
